# Values of other authors as cited in patent publication US20040202731A1, “Rosmarinic acid composition” (priority 2003, published 2004).
# Assays:
# rat liver microsomes = settings: concentration of 25 μg/ml
# human PMNL = settings: concentrations of 10^-5 to 10^-3 M
# [1] = in vivo
SMILES,stability (turns to camphor with oxidation),inhibition of lipid peroxidation of rat liver microsomes (rat liver microsomes) [%],formation of 5-HETE from human PMNL (human PMNL),formation of LTB4 from human PMNL (human PMNL),endotoxin-induced activation of complement and concomitant formation of prostacyclin (complement),absorption from the gastrointestinal tract and from the skin [1]
"CC1(C)C2CCC1(C)C(O)C2 (stereo not drawn) [Borneol, endo-1,7,7-trimethyl-bicyclo[2.2.1]heptan-2-ol]",highly unstable,–,–,–,–,–
O=C(/C=C/c1ccc(O)c(O)c1)O[C@H](Cc1ccc(O)c(O)c1)C(=O)O [Rosmarinic acid],–,90,inhibited,inhibited,suppresses,well absorbed
